Experimental data taken from patent publication US6855730B2, “3-methylidenyl-2-indolinone modulators of protein kinase” (Sugen, Inc., priority 1998, dated 2005).

Tests used:
flkGST = target: T1, flkGST (Homo sapiens, UniProt P35968); assay: bio flkGST assay; assay type: biochemical
T1 construct: GST

EGFR = EGFR (Homo sapiens, UniProt P00533); assay: EGFR assay (cellular ELISA, NIH 3T3/C7 cells); assay type: cell-based; design: expressed in transfected cells; host or cells: NIH 3T3/C7; details: read-out: cell EGF IC50
Summary of the method: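 NIH 3T3/C7 cells expressing human EGFR, serum-starved (0.5% serum) ~40 h, treated with compound (1:200 of 10 mg/ml DMSO stock, 1% DMSO) then stimulated 5 min with 25 nM EGF. Lysate EGFR captured by antibody and phosphotyrosine detected by anti-Ptyr ELISA (OD 410 nm); % inhibition after negative-control subtraction.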

pyk2 = pyk2 (Homo sapiens, UniProt Q14289); assay: bio pyk2 assay; assay type: biochemical
pyk2, sequence (Q14289 whole entry, species assumed): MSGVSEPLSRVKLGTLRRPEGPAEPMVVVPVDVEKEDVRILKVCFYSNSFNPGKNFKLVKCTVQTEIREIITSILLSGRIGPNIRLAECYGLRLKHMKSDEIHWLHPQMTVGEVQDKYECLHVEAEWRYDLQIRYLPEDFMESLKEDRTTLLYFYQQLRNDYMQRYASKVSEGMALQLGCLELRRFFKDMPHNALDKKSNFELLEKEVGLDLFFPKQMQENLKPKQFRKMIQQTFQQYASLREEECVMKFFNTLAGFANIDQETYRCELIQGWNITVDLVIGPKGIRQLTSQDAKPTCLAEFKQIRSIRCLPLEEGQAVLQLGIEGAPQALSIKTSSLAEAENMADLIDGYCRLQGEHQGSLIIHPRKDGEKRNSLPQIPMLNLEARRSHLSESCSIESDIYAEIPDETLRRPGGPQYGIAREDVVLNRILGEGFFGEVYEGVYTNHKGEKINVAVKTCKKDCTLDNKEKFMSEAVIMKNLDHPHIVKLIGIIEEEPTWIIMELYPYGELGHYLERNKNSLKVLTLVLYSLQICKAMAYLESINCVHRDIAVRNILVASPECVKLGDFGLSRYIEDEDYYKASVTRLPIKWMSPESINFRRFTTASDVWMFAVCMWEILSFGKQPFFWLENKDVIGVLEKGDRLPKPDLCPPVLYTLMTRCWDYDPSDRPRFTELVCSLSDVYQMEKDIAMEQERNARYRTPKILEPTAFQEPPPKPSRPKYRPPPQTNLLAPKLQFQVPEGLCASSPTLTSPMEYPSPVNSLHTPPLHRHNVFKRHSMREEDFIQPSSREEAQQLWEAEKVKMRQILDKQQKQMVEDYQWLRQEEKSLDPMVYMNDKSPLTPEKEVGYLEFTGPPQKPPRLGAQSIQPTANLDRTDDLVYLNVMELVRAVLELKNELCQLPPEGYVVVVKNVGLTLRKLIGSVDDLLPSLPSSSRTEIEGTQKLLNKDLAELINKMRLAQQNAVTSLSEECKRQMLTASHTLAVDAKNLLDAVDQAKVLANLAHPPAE

EGFR, sequence (P00533 25-1210): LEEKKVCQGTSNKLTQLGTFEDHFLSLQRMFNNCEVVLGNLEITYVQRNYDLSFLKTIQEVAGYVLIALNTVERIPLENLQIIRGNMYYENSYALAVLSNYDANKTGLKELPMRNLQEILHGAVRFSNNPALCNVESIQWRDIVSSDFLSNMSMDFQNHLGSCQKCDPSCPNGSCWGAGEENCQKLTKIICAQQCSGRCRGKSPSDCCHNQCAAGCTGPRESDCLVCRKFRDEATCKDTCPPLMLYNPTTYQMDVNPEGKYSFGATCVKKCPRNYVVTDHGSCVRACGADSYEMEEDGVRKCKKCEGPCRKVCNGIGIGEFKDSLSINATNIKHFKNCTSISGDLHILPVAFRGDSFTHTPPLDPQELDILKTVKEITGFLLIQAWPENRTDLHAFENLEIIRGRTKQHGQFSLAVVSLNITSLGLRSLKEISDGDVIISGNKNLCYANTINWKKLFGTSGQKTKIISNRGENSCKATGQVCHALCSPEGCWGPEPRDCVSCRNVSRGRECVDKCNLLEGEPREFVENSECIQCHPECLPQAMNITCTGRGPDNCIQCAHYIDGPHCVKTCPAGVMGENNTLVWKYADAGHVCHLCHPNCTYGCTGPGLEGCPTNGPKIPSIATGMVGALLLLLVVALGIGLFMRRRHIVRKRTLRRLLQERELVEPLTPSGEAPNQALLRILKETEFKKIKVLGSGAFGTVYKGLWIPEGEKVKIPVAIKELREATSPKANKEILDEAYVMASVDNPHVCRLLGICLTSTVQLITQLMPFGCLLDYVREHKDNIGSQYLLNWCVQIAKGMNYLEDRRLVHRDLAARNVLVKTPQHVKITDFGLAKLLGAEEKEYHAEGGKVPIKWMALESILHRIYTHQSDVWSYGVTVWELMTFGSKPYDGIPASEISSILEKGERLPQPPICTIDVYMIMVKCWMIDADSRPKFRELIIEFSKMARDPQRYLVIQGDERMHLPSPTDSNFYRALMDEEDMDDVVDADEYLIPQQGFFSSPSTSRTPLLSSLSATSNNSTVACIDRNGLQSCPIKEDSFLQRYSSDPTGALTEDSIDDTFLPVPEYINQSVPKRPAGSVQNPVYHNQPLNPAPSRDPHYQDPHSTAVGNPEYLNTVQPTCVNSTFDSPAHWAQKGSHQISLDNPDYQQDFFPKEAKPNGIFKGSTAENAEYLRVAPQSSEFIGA
T1 sequence (P35968 786-1356 limits assumed): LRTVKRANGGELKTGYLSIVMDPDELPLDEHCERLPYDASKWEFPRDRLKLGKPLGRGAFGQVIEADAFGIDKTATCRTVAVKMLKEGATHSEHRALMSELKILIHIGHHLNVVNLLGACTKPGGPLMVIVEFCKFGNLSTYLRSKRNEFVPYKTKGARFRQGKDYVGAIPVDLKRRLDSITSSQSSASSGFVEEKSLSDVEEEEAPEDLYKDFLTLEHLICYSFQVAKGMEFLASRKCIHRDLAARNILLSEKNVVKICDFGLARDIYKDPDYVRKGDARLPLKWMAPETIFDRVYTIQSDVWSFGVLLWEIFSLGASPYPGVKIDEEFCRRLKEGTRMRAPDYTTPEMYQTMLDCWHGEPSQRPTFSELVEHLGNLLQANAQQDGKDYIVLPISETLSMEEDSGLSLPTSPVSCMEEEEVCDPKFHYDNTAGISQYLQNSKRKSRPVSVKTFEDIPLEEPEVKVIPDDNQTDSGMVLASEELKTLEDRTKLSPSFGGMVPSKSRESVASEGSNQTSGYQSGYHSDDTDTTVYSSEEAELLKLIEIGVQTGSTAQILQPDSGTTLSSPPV

Structure (SMILES) | IC50 (flkGST) | IC50 (EGFR) | IC50 (pyk2)
COc1c(C(C)C)cc(/C=C2/C(=O)Nc3ccccc32)cc1C(C)C [Example 1, 3-(3,5-Diisopropyl-4-methoxybenzylidene)-1,3-dihydroindol-2-one] |  | 45.7 µM | 
COc1c(C(C)C)cc(/C=C2/C(=O)Nc3ccc(Cl)cc32)cc1C(C)C [Example 2, 5-Chloro-3-(3,5-diisopropyl-4-methoxybenzylidene)-1,3-dihydroindol-2-one] |  | > 100 µM | 
O=C1Nc2ccc(N=Cc3cc4ccccc4[nH]3)cc2C1=Cc1cc2ccccc2[nH]1 [Example 171, 3-(1H-indol-2-ylmethylene)-5-[(1H-indol-2-ylmethylene)-amino]-1,3-dihydroindol-2-one] |  | > 100 µM | 
NS(=O)(=O)c1ccc2c(c1)/C(=C/c1c[nH]c3ccccc13)C(=O)N2 [Example 172, 3-(1H-Indol-3-ylmethylene)-2-oxo-2,3-dihydro-1H-indole-5-sulfonic acid amide] | 10.5 µM | > 100 µM | 14.8 µM
CNS(=O)(=O)c1ccc2c(c1)/C(=C/c1cc3ccccc3[nH]1)C(=O)N2 [Example 173, 3-(1H-Indol-2-ylmethylene)-2-oxo-2,3-dihydro-1H-indole-5-sulfonic acid methylamide] | 11.1 µM | > 100 µM | 9.8 µM
O=C1Nc2ccc(C(=O)O)cc2/C1=C/c1c[nH]c2ccccc12 [Example 174, 3-(1H-Indol-3-ylmethylene)-2-oxo-2,3-dihydro-1H-indole-5-carboxylic acid] | 1.85 µM | > 100 µM | 2.57 µM
O=C1Nc2ccc(C(=O)O)cc2/C1=C/c1ccc2[nH]ccc2c1 [Example 177, 3-(1H-Indol-5-ylmethylene)-2-oxo-2,3-dihydro-1H-indole-5-carboxylic acid] | 1.34 µM | > 100 µM | > 100 µM
Nc1ccc2c(c1)/C(=C/c1ccc3[nH]ccc3c1)C(=O)N2 [Example 179, 5-Amino-3-(1H-indol-5-ylmethylene)-1,3-dihydro-indol-2-one] | 1.84 µM | > 100 µM | > 100 µM
Cc1c(/C=C2\C(=O)Nc3ccc(N)cc32)[nH]c2ccccc12 [Example 180, 5-Amino-3-(3-methyl-1H-indol-2-ylmethylene)-1,3-dihydroindol-2-one] | 1.11 µM | > 100 µM | < 0.78 µM
Cc1[nH]c2ccccc2c1/C=C1\C(=O)Nc2ccc(C(=O)O)cc21 [Example 182, 3-(2-Methyl-1H-indol-3-ylmethylene)-2-oxo-2,3-dihydro-1H-indole-5-carboxylic acid] | 18.7 µM | > 100 µM | 37.1 µM
Cc1[nH]c2ccccc2c1/C=C1\C(=O)Nc2ccc(N)cc21 [Example 187, 5-Amino-3-(2-methyl-1H-indol-3-ylmethylene)-1,3-dihydroindol-2-one] | > 20 µM | > 100 µM | 75.8 µM
COc1ccc(-c2ccc3c(c2)NC(=O)/C3=C\c2[nH]c3c(c2CCC(=O)O)CCCC3)cc1 [Example 205, 3-{2-[6-(4-Methoxyphenyl)-2-oxo-1,2-dihydro-indol-3-ylidenemethyl]-4,5,6,7-tetrahydro-1H-indol-3-yl}-propionic acid] | 0.44 µM |  | 
O=C(O)CCc1c(/C=C2\C(=O)Nc3cc(-c4ccccc4)ccc32)[nH]c2c1CCCC2 [Example 206, 3-[2-(2-oxo-6-phenyl-1,2-dihydroindol-3-ylidenemethyl)-4,5,6,7-tetrahydro-1H-indol-3-yl]-propionic acid] | 0.06 µM |  | 
O=C(O)CCc1ccccc1/C=C1/C(=O)Nc2ccccc21 [Example 214, 3-[2-(2-Oxo-1,2-dihydroindol-3-ylidenemethyl)-phenyl]-propionic acid] |  | > 100 µM | 
Cc1c[nH]c(/C=C2\C(=O)Nc3cccc(C)c32)c1CCC(=O)O [Example 218, 3-[2-(4-Methyl-2-oxo-1,2-dihydroindol-3-ylidenemethyl)-4-methyl-1H-pyrrol-3-yl]-propionic acid] | 0.48 µM |  | 32.3 µM
Cc1c[nH]c(C=C2C(=O)Nc3cc(Cl)ccc32)c1CCC(=O)O [Example 219, 3-[2-(6-Chloro-2-oxo-1,2-dihydroindol-3-ylidenemethyl)-4-methyl-1H-pyrrol-3-yl]-propionic acid] |  | > 100 µM | 4.15 µM
Cc1c[nH]c(/C=C2\C(=O)Nc3ccc(Br)cc32)c1CCC(=O)O [Example 220, 3-[2-(5-Bromo-2-oxo-1,2-dihydroindol-3-ylidenemethyl)-4-methyl-1H-pyrrol-3-yl]-propionic acid] | 0.11 µM |  | 1.89 µM

Now from value to molecule:

IC50 (flkGST) | IC50 (EGFR) | IC50 (pyk2) | Structure (SMILES)
3.31 µM | > 100 µM |  | CCOC(=O)c1c(C)[nH]c(/C=C2\C(=O)Nc3ccc(Br)cc32)c1CCC(=O)O [Compound 114, 5-(5-Bromo-2-oxo-1,2-dihydroindol-3-ylidenemethyl)-4-(2-carboxyethyl)-2-methyl-1H-pyrrole-3-carboxylic acid ethyl ester]
0.1 µM | > 100 µM |  | Cc1cc(CCC(=O)O)c(/C=C2\C(=O)Nc3ccc(Br)cc32)[nH]1 [Compound 116, 3-[2-(5-Bromo-2-oxo-1,2-dihydroindol-3-ylidenemethyl)-5-methyl-1H-pyrrol-3-yl]-propionic acid]
0.087 µM |  | < 0.78 µM | O=C(O)CCc1c(/C=C2\C(=O)Nc3ccccc32)[nH]c2c1CCCC2 [Example 190, 3-[2-(2-Oxo-1,2-dihydro-indol-3-ylidenemethyl)-4,5,6,7-tetrahydro-1H-indol-3-yl]-propionic acid]
0.04 µM | > 100 µM | 68.5 µM | O=C(O)CCc1c(/C=C2\C(=O)Nc3ccc(Cl)cc32)[nH]c2c1CCCC2 [Example 191, 3-[2-(5-Chloro-2-oxo-1,2-dihydroindol-3-ylidenemethyl)-4,5,6,7-tetrahydro-1H-indol-3-yl]-propionic acid]
0.03 µM |  | 4.87 µM | O=C(O)CCc1c(/C=C2\C(=O)Nc3ccc(Br)cc32)[nH]c2c1CCCC2 [Example 192, 3-[2-(5-Bromo-2-oxo-1,2-dihydroindol-3-ylidenemethyl)-4,5,6,7-tetrahydro-1H-indol-3yl]-propionic acid]
3.6 µM |  | 17.3 µM | Cc1cccc2c1/C(=C/c1[nH]c3c(c1CCC(=O)O)CCCC3)C(=O)N2 [Example 193, 3-[2-(4-Methyl-2-oxo-1,2-dihydroindol-3-ylidenemethyl)-4,5,6,7-tetrahydro-1H-indol-3-yl]-propionic acid]
6.67 µM |  | 4.09 µM | Cc1ccc2c(c1)/C(=C/c1[nH]c3c(c1CCC(=O)O)CCCC3)C(=O)N2 [Example 194, 3-[2-(5-Methyl-2-oxo-1,2-dihydroindol-3-ylidenemethyl)-4,5,6,7-tetrahydro-1H-indol-3-yl]-propionic acid]
4.35 µM | > 100 µM | 10.7 µM | O=C(O)CCc1c(/C=C2\C(=O)Nc3cc(Cl)ccc32)[nH]c2c1CCCC2 [Example 195, 3-[2-(6-Chloro-2-oxo-1,2-dihydroindol-3-ylidenemethyl)-4,5,6,7-tetrahydro-1H-indol-3-yl]-propionic acid]
0.41 µM |  | 2.37 µM | COc1ccc2c(c1)NC(=O)/C2=C\c1[nH]c2c(c1CCC(=O)O)CCCC2 [Example 196, 3-[2-(6-Methoxy-2-oxo-1,2-dihydroindol-3-ylidenemethyl)-4,5,6,7-tetrahydro-1H-indol-3-yl]-propionic acid]
2.54 µM | > 100 µM |  | O=C(CCc1c(/C=C2\C(=O)Nc3ccccc32)[nH]c2c1CCCC2)NCCN1CCOCC1 [Example 202, N-(2-Morpholin-4-ylethyl)-3-[2-(2-oxo-1,2-dihydroindol-3-ylidenemethyl)-4,5,6,7-tetrahydro-1H-indol-3-yl]-propionamide]
 | > 12.5 µM |  | O=C(O)CCc1c(/C=C2\C(=O)Nc3ncccc32)[nH]c2c1CCCC2 [Example 203, 3-[2-(2-Oxo-1,2-dihydropyrrolo[2,3-b]pyridin-3-ylidenemethyl)-4,5,6,7-tetrahydro-1H-indol-3-yl]-propionic acid]
0.07 µM | > 100 µM |  | COc1cccc(-c2ccc3c(c2)NC(=O)/C3=C\c2[nH]c3c(c2CCC(=O)O)CCCC3)c1 [Example 204, 3-{2-[6-(3-Methoxyphenyl)-2-oxo-1,2-dihydro-indol-3-ylidenemethyl]-4,5,6,7-tetrahydro-1H-indol-3-yl}-propionic acid]
 | > 100 µM | 23.9 µM | Cc1c[nH]c(/C=C2\C(=O)Nc3ccc(Cl)cc32)c1CCC(=O)O [Example 216, 3-[2-(5-Chloro-2-oxo-1,2-dihydroindol-3-ylidenemethyl)-4-methyl-1H-pyrrol-3-yl]-propionic acid]
 | > 100 µM | 2.89 µM | COc1ccc2c(c1)NC(=O)/C2=C\c1[nH]cc(C)c1CCC(=O)O [Example 217, 3-[2-(6-Methoxy-2-oxo-1,2-dihydroindol-3-ylidenemethyl)-4-methyl-1H-pyrrol-3-yl]-propionic acid]
0.18 µM | > 100 µM |  | COc1ccc2c(c1)/C(=C/c1[nH]cc(C)c1CCC(=O)O)C(=O)N2 [Example 222, 3-[2-(5-Methoxy-2-oxo-1,2-dihydroindol-3-ylidenemethyl)-4-methyl-1H-pyrrol-3-yl]-propionic acid]
0.57 µM |  |  | COc1cccc(-c2ccc3c(c2)NC(=O)/C3=C\c2[nH]cc(C)c2CCC(=O)O)c1 [Example 223, 3-{2-[6-(3-Methoxyphenyl)-2-oxo-1,2-dihydro-indol-3-ylidenemethyl]-4-methyl-1H-pyrrol-3-yl}-propionic acid]
0.67 µM |  |  | CCOc1cccc(-c2ccc3c(c2)NC(=O)/C3=C\c2[nH]cc(C)c2CCC(=O)O)c1 [Example 224, 3-{2-[6-(3-Ethoxyphenyl)-2-oxo-1,2-dihydro-indol-3-ylidenemethyl]-4-methyl-1H-pyrrol-3-yl}-propionic acid]
